Data from patent US7320989B2, “Pyridine, pyrimidine, quinoline, quinazoline, and naphthalene urotensin-II receptor antagonists” (Encysive Pharmaceuticals, Inc., priority 2003, dated 2008).

Target: T1, human urotensin-II receptor (UTR cells) (Homo sapiens, UniProt Q9UKP6)
T1 construct: host or cells: 'UTR cells': TE-671 rhabdomyosarcoma cells (endogenous) or CHO cells stably expressing recombinant UTR
T1 sequence (Q9UKP6 1-389): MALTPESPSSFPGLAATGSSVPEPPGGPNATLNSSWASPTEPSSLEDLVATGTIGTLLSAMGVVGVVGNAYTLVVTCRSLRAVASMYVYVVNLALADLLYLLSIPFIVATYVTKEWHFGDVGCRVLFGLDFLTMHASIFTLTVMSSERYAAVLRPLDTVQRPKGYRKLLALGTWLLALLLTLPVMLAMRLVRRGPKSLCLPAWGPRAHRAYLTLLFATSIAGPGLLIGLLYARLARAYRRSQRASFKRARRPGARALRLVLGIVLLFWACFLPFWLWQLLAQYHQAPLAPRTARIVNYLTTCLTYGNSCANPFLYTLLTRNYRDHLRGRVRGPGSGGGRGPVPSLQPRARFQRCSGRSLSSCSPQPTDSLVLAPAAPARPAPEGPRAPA
Assay: Inhibition of human urotensin-II-induced Ca2+ mobilization in UTR cells
Type: cell-based
Details: inhibition of signal induced by 1 nM human U-II, fluo-4AM, FlexStation
Protocol: 1) Inhibition of Human Urotensin-II-Induced Ca^2+ Mobilization in UTR Cells:
The function of urotensin-II was determined by measuring ligand-induced mobilization of intracellular Ca^2+ in a FlexStation scanning fluorometer (Molecular Devices). UTR cells were plated overnight at 50,000 cells/well in 96-well black/clear plates (Costar brand, Fisher 07-200-588). Cells were labeled with fluo-4AM dye (Molecular Probes, F-14201) in Hank's balanced salt solution (HBSS), 20 mM HEPES, 25 mM probenecid, pH 7.4, and then were washed with buffer. During the assay, cells were continuously monitored in the FlexStation and exposed to test compounds at a final concentration of 0.1% DMSO, followed by the addition of 1 nM human U-II. Fluorescence was read every 2 seconds for 2 minutes. The excitation and emission wavelengths used were 485 nm and 525 nm. Inhibition of the urotensin-II-induced signal was calculated using a nonlinear least square fitting program.

`CN(C)CCOc1cc(Nc2ccnc3cc(C(F)(F)F)ccc23)ccc1Cl` [Example 7, (4-chloro-3-(2-dimethylamino-ethoxy)-phenyl)-(7-trifluoromethyl-quinolin-4-yl)-amine] was tested, and the IC50 was 6.5 µM.
